Test results reported in ChEMBL document CHEMBL4396865, “Current advances of triazole alcohols derived from fluconazole: Design, in vitro and in silico studies” (2019).
Converted amounts (≈) assume the structure as drawn.

Key:
Assay type in all cases: functional
Candida albicans [1] = assay: Antifungal activity against Candida albicans after 24 hrs by NCCLS protocol based method
Candida tropicalis [2] = assay: Antifungal activity against Candida tropicalis after 24 hrs by NCCLS protocol based method
Cryptococcus neoformans [3] = assay: Antifungal activity against Cryptococcus neoformans after 72 hrs by NCCLS protocol based method
Trichophyton rubrum [4] = assay: Antifungal activity against Trichophyton rubrum after 7 days by NCCLS protocol based method; conditions: 168 h
Nannizzia gypsea = assay: Antifungal activity against Microsporum gypseum after 7 days by NCCLS protocol based method; conditions: 168 h
Candida albicans [5] = assay: Antifungal activity against Candida albicans; conditions: Candida albicans
Candida parapsilosis = assay: Antifungal activity against Candida parapsilosis; conditions: Lodderomyces parapsilosis
Candida tropicalis [6] = assay: Antifungal activity against Candida tropicalis; conditions: Candida tropicalis
Cryptococcus neoformans [7] = assay: Antifungal activity against Cryptococcus neoformans; conditions: Cryptococcus neoformans
Pichia kudriavzevii = assay: Antifungal activity against Candida krusei
Candida tropicalis [8] = assay: Antifungal activity against Candida tropicalis after 24 hrs by microbroth dilution method
Trichophyton rubrum [9] = assay: Antifungal activity against Trichophyton rubrum after 24 hrs by microbroth dilution method
Microsporum canis [10] = assay: Antifungal activity against Microsporum canis after 24 hrs by microbroth dilution method
Fonsecaea compacta [11] = assay: Antifungal activity against Fonsecaea compacta after 24 hrs by microbroth dilution method
Aspergillus fumigatus [12] = assay: Antifungal activity against Aspergillus fumigatus after 24 hrs by microbroth dilution method
Candida tropicalis [13] = assay: Potency index, ratio of fluconazole MIC to test compound MIC for Candida tropicalis
Candida albicans [14] = assay: Potency index, ratio of fluconazole MIC to test compound MIC for Candida albicans ATCC 76615
Cryptococcus neoformans [15] = assay: Potency index, ratio of fluconazole MIC to test compound MIC for activity against Cryptococcus neoformans ATCC 32609
Trichophyton rubrum [16] = assay: Potency index, ratio of fluconazole MIC to test compound MIC for Trichophyton rubrum
Microsporum canis [17] = assay: Potency index, ratio of fluconazole MIC to test compound MIC for Microsporum canis
Fonsecaea compacta [18] = assay: Potency index, ratio of fluconazole MIC to test compound MIC for Fonsecaea compacta
Aspergillus fumigatus [19] = assay: Potency index, ratio of fluconazole MIC to test compound MIC for Aspergillus fumigatus

Structure (SMILES) | MIC (Candida albicans [1]) | MIC (Candida tropicalis [2]) | MIC (Cryptococcus neoformans [3]) | MIC (Trichophyton rubrum [4]) | MIC (Nannizzia gypsea) | MIC80 (Candida albicans [5]) | MIC80 (Candida parapsilosis) | MIC80 (Candida tropicalis [6]) | MIC80 (Cryptococcus neoformans [7]) | MIC80 (Pichia kudriavzevii) | also measured
CN(CCCOc1ccc(F)cc1)CC(O)(Cn1cncn1)c1ccc(F)cc1F (stereo unspecified) | 0.001 to 0.016 µg/mL (≈ 0.00238 to 0.0381 µM) | 0.001 to 0.016 µg/mL (≈ 0.00238 to 0.0381 µM) | 0.001 to 0.016 µg/mL (≈ 0.00238 to 0.0381 µM) | 0.001 to 0.016 µg/mL (≈ 0.00238 to 0.0381 µM) | 0.001 to 0.016 µg/mL (≈ 0.00238 to 0.0381 µM) | – | – | – | – | – | –
CN(CC(=O)Nc1ccc(OC(F)(F)F)cc1)CC(O)(Cn1cncn1)c1ccc(F)cc1F (stereo unspecified) | – | – | – | – | – | 0.0156 µg/mL (≈ 0.0321 µM) | 0.25 to 1 µg/mL (≈ 0.515 to 2.06 µM) | 0.25 to 1 µg/mL (≈ 0.515 to 2.06 µM) | 0.0156 µg/mL (≈ 0.0321 µM) | 0.25 to 1 µg/mL (≈ 0.515 to 2.06 µM) | –
CN(CCCOc1ccc([N+](=O)[O-])cc1)CC(O)(Cn1cncn1)c1ccc(F)cc1F (stereo unspecified) | 0.001 µg/mL (≈ 0.00223 µM) | 0.001 µg/mL (≈ 0.00223 µM) | 0.001 µg/mL (≈ 0.00223 µM) | 0.001 µg/mL (≈ 0.00223 µM) | 0.001 µg/mL (≈ 0.00223 µM) | – | – | – | – | – | –
Cc1ccc(NC(=O)CN(C)CC(O)(Cn2cncn2)c2ccc(F)cc2F)cc1 (stereo unspecified) | – | – | – | – | – | 0.0156 µg/mL (≈ 0.0376 µM) | 0.25 to 1 µg/mL (≈ 0.602 to 2.41 µM) | 0.25 to 1 µg/mL (≈ 0.602 to 2.41 µM) | 0.0156 µg/mL (≈ 0.0376 µM) | 0.25 to 1 µg/mL (≈ 0.602 to 2.41 µM) | –
COc1cccc(NC(=O)CN(C)CC(O)(Cn2cncn2)c2ccc(F)cc2F)c1 (stereo unspecified) | – | – | – | – | – | 0.0156 µg/mL (≈ 0.0362 µM) | 0.25 to 1 µg/mL (≈ 0.579 to 2.32 µM) | 0.25 to 1 µg/mL (≈ 0.579 to 2.32 µM) | 0.0156 µg/mL (≈ 0.0362 µM) | 0.25 to 1 µg/mL (≈ 0.579 to 2.32 µM) | –
CN(CC(=O)Nc1ccc(C(C)(C)C)cc1)CC(O)(Cn1cncn1)c1ccc(F)cc1F (stereo unspecified) | – | – | – | – | – | 0.0156 µg/mL (≈ 0.0341 µM) | 0.25 to 1 µg/mL (≈ 0.546 to 2.19 µM) | 0.25 to 1 µg/mL (≈ 0.546 to 2.19 µM) | 0.0156 µg/mL (≈ 0.0341 µM) | 0.25 to 1 µg/mL (≈ 0.546 to 2.19 µM) | –
Cc1ccc(NC(=O)CN(C)CC(O)(Cn2cncn2)c2ccc(F)cc2F)c(C)c1 (stereo unspecified) | – | – | – | – | – | 0.0156 µg/mL (≈ 0.0363 µM) | 0.25 to 1 µg/mL (≈ 0.582 to 2.33 µM) | 0.25 to 1 µg/mL (≈ 0.582 to 2.33 µM) | 0.0156 µg/mL (≈ 0.0363 µM) | 0.25 to 1 µg/mL (≈ 0.582 to 2.33 µM) | –
Cc1cc(C)cc(NC(=O)CN(C)CC(O)(Cn2cncn2)c2ccc(F)cc2F)c1 (stereo unspecified) | – | – | – | – | – | 0.0156 µg/mL (≈ 0.0363 µM) | 0.25 to 1 µg/mL (≈ 0.582 to 2.33 µM) | 0.25 to 1 µg/mL (≈ 0.582 to 2.33 µM) | 0.0156 µg/mL (≈ 0.0363 µM) | 0.25 to 1 µg/mL (≈ 0.582 to 2.33 µM) | –
Cc1cccc(OCCCCN(C)CC(O)(Cn2cncn2)c2ccc(F)cc2F)c1 (stereo unspecified) | 0.001 µg/mL (≈ 0.00232 µM) | 0.001 µg/mL (≈ 0.00232 µM) | 0.001 µg/mL (≈ 0.00232 µM) | 0.001 µg/mL (≈ 0.00232 µM) | 0.001 µg/mL (≈ 0.00232 µM) | – | – | – | – | – | –
CN(CC(=O)Nc1cc(Cl)ccc1Cl)CC(O)(Cn1cncn1)c1ccc(F)cc1F (stereo unspecified) | – | – | – | – | – | 0.0156 µg/mL (≈ 0.0332 µM) | 0.25 to 1 µg/mL (≈ 0.532 to 2.13 µM) | 0.25 to 1 µg/mL (≈ 0.532 to 2.13 µM) | 0.0156 µg/mL (≈ 0.0332 µM) | 0.25 to 1 µg/mL (≈ 0.532 to 2.13 µM) | –
OC(CN(Cc1ccccc1Cl)C1CC1)(Cn1cncn1)c1ccc(F)cc1F (stereo unspecified) | – | – | – | – | – | – | – | – | – | – | MIC80 (Candida tropicalis [8]): 0.125 µg/mL (≈ 0.298 µM); MIC80 (Trichophyton rubrum [9]): 0.125 µg/mL (≈ 0.298 µM); MIC80 (Microsporum canis [10]): 0.125 µg/mL (≈ 0.298 µM); MIC80 (Fonsecaea compacta [11]): 0.125 µg/mL (≈ 0.298 µM); MIC80 (Aspergillus fumigatus [12]): 0.125 µg/mL (≈ 0.298 µM); Ratio (Candida tropicalis [13]): 4; Ratio (Candida albicans [14]): 4; Ratio (Cryptococcus neoformans [15]): 4; Ratio (Trichophyton rubrum [16]): 4; Ratio (Microsporum canis [17]): 4; Ratio (Fonsecaea compacta [18]): 4; Ratio (Aspergillus fumigatus [19]): 4
CN(CCCCOc1cccc([N+](=O)[O-])c1)CC(O)(Cn1cncn1)c1ccc(F)cc1F (stereo unspecified) | 0.001 to 0.016 µg/mL (≈ 0.00217 to 0.0347 µM) | 0.001 to 0.016 µg/mL (≈ 0.00217 to 0.0347 µM) | 0.001 to 0.016 µg/mL (≈ 0.00217 to 0.0347 µM) | 0.001 to 0.016 µg/mL (≈ 0.00217 to 0.0347 µM) | 0.001 to 0.016 µg/mL (≈ 0.00217 to 0.0347 µM) | – | – | – | – | – | –
Cc1ccc(OCCCCN(C)CC(O)(Cn2cncn2)c2ccc(F)cc2F)cc1 (stereo unspecified) | 0.001 µg/mL (≈ 0.00232 µM) | 0.001 µg/mL (≈ 0.00232 µM) | 0.001 µg/mL (≈ 0.00232 µM) | 0.001 µg/mL (≈ 0.00232 µM) | 0.001 µg/mL (≈ 0.00232 µM) | – | – | – | – | – | –
OC(CN(Cc1ccccc1Br)C1CC1)(Cn1cncn1)c1ccc(F)cc1F (stereo unspecified) | – | – | – | – | – | – | – | – | – | – | MIC80 (Candida tropicalis [8]): 0.125 µg/mL (≈ 0.27 µM); MIC80 (Trichophyton rubrum [9]): 0.125 µg/mL (≈ 0.27 µM); MIC80 (Microsporum canis [10]): 0.125 µg/mL (≈ 0.27 µM); MIC80 (Fonsecaea compacta [11]): 0.125 µg/mL (≈ 0.27 µM); MIC80 (Aspergillus fumigatus [12]): 0.125 µg/mL (≈ 0.27 µM); Ratio (Candida tropicalis [13]): 4; Ratio (Candida albicans [14]): 4; Ratio (Cryptococcus neoformans [15]): 4; Ratio (Trichophyton rubrum [16]): 4; Ratio (Microsporum canis [17]): 4; Ratio (Fonsecaea compacta [18]): 4; Ratio (Aspergillus fumigatus [19]): 4
CN(CC(=O)Nc1ccc(Cl)cc1)CC(O)(Cn1cncn1)c1ccc(F)cc1F (stereo unspecified) | – | – | – | – | – | 0.0156 µg/mL (≈ 0.0358 µM) | 0.25 to 1 µg/mL (≈ 0.574 to 2.29 µM) | 0.25 to 1 µg/mL (≈ 0.574 to 2.29 µM) | 0.0156 µg/mL (≈ 0.0358 µM) | 0.25 to 1 µg/mL (≈ 0.574 to 2.29 µM) | –
CN(CC(=O)Nc1ccc(F)cc1)CC(O)(Cn1cncn1)c1ccc(F)cc1F (stereo unspecified) | – | – | – | – | – | 0.0156 µg/mL (≈ 0.0372 µM) | 0.25 to 1 µg/mL (≈ 0.596 to 2.38 µM) | 0.25 to 1 µg/mL (≈ 0.596 to 2.38 µM) | 0.0156 µg/mL (≈ 0.0372 µM) | 0.25 to 1 µg/mL (≈ 0.596 to 2.38 µM) | –
OC(CN(Cc1ccc(F)cc1)C1CC1)(Cn1cncn1)c1ccc(F)cc1F (stereo unspecified) | – | – | – | – | – | – | – | – | – | – | MIC80 (Candida tropicalis [8]): 0.125 µg/mL (≈ 0.311 µM); MIC80 (Trichophyton rubrum [9]): 0.125 µg/mL (≈ 0.311 µM); MIC80 (Microsporum canis [10]): 0.125 µg/mL (≈ 0.311 µM); MIC80 (Fonsecaea compacta [11]): 0.125 µg/mL (≈ 0.311 µM); MIC80 (Aspergillus fumigatus [12]): 0.125 µg/mL (≈ 0.311 µM); Ratio (Candida tropicalis [13]): 4; Ratio (Candida albicans [14]): 4; Ratio (Cryptococcus neoformans [15]): 4; Ratio (Trichophyton rubrum [16]): 4; Ratio (Microsporum canis [17]): 4; Ratio (Fonsecaea compacta [18]): 4; Ratio (Aspergillus fumigatus [19]): 4
CCC(C)n1ncn(-c2ccc(N3CCN(c4ccc(OCC5COC(Cn6cncn6)(c6ccc(Cl)cc6Cl)O5)cc4)CC3)cc2)c1=O (stereo unspecified) [ITRACONAZOLE] | 0.0625 µg/mL (≈ 0.0886 µM) | 0.0625 µg/mL (≈ 0.0886 µM) | 0.0625 µg/mL (≈ 0.0886 µM) | 0.0625 µg/mL (≈ 0.0886 µM) | 0.0625 µg/mL (≈ 0.0886 µM) | – | – | – | – | – | –
CN(CCCOc1ccc(C(C)(C)C)cc1)CC(O)(Cn1cncn1)c1ccc(F)cc1F (stereo unspecified) | 0.001 to 0.016 µg/mL (≈ 0.00218 to 0.0349 µM) | 0.001 to 0.016 µg/mL (≈ 0.00218 to 0.0349 µM) | 0.001 to 0.016 µg/mL (≈ 0.00218 to 0.0349 µM) | 0.001 to 0.016 µg/mL (≈ 0.00218 to 0.0349 µM) | 0.001 to 0.016 µg/mL (≈ 0.00218 to 0.0349 µM) | – | – | – | – | – | –
